Data reported in patent US9776992B2, “1-oxo-1,2-dihydroisoquinolin-7-yl-(5-substituted-thiophen-2-yl)-sulfonamide compounds, formulations containing those compounds, and their use as AICARFT inhibitors in the treatment of cancers” (Eli Lilly and Company, priority 2014, dated 2017).

How the values were obtained:
AICARFT [1] = biological target: T1, AICARFT (Homo sapiens, UniProt P31939); experiment: MS detection of ZMP in low folate media cultured NCI-H460 cells; type: cell-based; design: endogenous in cells; host or cells: NCI-H460; conditions: low levels of folate in the media; summary of Table 16
Method: Grow NCI-H460 cells in complete high folate RPMI media (ATCC #30-2001) until cellular confluence reaches ˜80%. Wash cells with PBS, trypsinize, resuspend cells in complete low folate RPMI media (Gibco #27016-021) and perform a cell count. Transfer 1.25×10^6 cells to a T225 flask containing complete low folate RPMI media (40 mL). Grow for seven days. Split cells again with complete low folate media if confluence surpasses 80%. Wash cells with PBS, trypsinize, resuspend cells in complete low folate RPMI media, and perform a cell count. Aliquot 10×10^6 cells in complete low folate media (1 mL)+5% DMSO per cryovial. Use a cell freezing apparatus to freeze cells in a slow and controlled manner in a −80° C. freezer. The next day, transfer cells to liquid nitrogen for long term storage. Thaw frozen cells from cryovial in 37° C. water bath, wash cells once with low folate assay medium: folate free RPMI 1640 medium (Gibco, #27016-021), Glucose (Sigma, #G5767), Hepes (Hyclone, #SH30237.01), Na Pyruvate (Hyclone, #Sh30239.01), 10% FBS (Hyclone, #SH30070.03). Adjust cells concentration to 250,000 cells/mL with medium, plate cells by adding 100 μl/well (25,000 cells/well) into Biocoat poly-D-lysine 96-well plate (BD, #35-4640), and incubate at 37° C. overnight with 5% CO2. Treat cells with 20 μl/well compound diluted in media containing 3% DMSO. Incubate at 37° C. for 16 hours with 5% CO2, then remove the medium and add 1× SureFire Lysis Buffer (50 μL) (PerkinElem, SureFire® Kit component) to each well and incubate at room temperature for 10 min with gentle shaking.
Cells grown in a 96-well plate have the media removed and are lysed in AlphaScreen® SureFire® lysis buffer. Standard curves containing ZMP, dUMP and AICAr at concentrations of 5-10,000 ng/mL are prepared in 40 mM ammonium acetate, pH 4. Aliquots (40 μL) of each standard or sample are combined in a deep 96-well plate with 160 μL of internal standard solution containing ^13C5-ZMP (custom synthesis) and ^13C5-AICAr (custom synthesis) at 100 ng/mL in 40 mM ammonium acetate, pH 4. A Beckman Biomek FX liquid handler is used to add 400 μL of DCM to each sample. Samples are sealed, vortexed for 5 minutes, and placed in the refrigerator for at least 30 minutes. The samples are centrifuged for 10 minutes at 4,000 rpm and 4° C. using an Eppendorf 5810R centrifuge, and the Biomek liquid handler is used to transfer 75 μL of the aqueous layer into a clean 96-well plate. The plates are sealed prior to analysis.
The LC-MS method utilizes a Shimadzu Prominence 20A HPLC system connected to an AB Sciex 5500™ or an AB Sciex 6500™ triple quadrupole mass spectrometer running Analyst® 2.1 software. Extracted samples are separated using a Thermo Hypercarb™ Javelin guard column (2.1×20 mm, […]) with an injection volume of 15 μL and a flow rate of 1 mL/minute. Mobile phase A is a 95:5 mixture of 50 mM ammonium formate, pH 4 and ACN. Mobile phase B is a 70:30 mixture of ACN and MeOH spiked with 0.3% formic acid and 2% concentrated ammonium hydroxide solution (v/v). The gradient is as follows: 0 minutes, 0% B; 0.25 minutes, 0% B; 2.00 minutes, 30% B; 2.01 minutes, 95% B; 3.50 minutes, 95% B, 3.51 minutes, 0% B, 5.00 minutes, stop.
The mass spectrometer is operated in positive ion TurboIonSpray® multiple reaction monitoring mode with a source temperature of 700° C. The precursor and fragment ions for each analyte are: ZMP (339→110), ^13C5-ZMP (344→110), dUMP (309→81), AICAr (259→127) and ^13C5-AICAr (264→127). Calibration curves are constructed by plotting analyte concentrations vs. analyte/internal standard peak area ratios and performing a linear fit of the data using a 1/concentration weighting with AB Sciex MultiQuant™ 2.1 software. Back-calculated ZMP concentrations are fit to a four-parameter logistic equation using ACTIVITYBASE 4.0 to determine IC50 values.

AICARFT [2] = biological target: T1, AICARFT; experiment: AICARFT enzyme assay (LC-MS of IMP and ZMP); type: biochemical; design: made in house; host or cells: E. coli BL21(DE3); conditions: summary of Table 15
Method: Human AICARFT (NCBI accession number: NM_004044.6) cDNA is purchased from Openbiosystem Co. (Cat# MHS1011-62310, Clone ID: 4300570, accession: BC008879). The nucleotide sequence encoding full-length human AICARFT is inserted into pET21d (Novagen) vector with an N-terminal HIS tag. Bacterial BL21(DE3) (Novagen) is used as an expression host, and the induction of protein expression is carried out in 2×TY media with 1 mM IPTG at 18° C. overnight. Cell pellets are stored at −80° C. for subsequent protein purification. Protein purification is conducted at 4° C. Frozen cell pellets are lysed by incubation with stirring in 50 mL cold lysis buffer (50 mM Tris-HCl, pH 7.5, 300 mM NaCl, 10% glycerol, 0.1% Triton X-100, 0.5 mg/mL lysozyme, 5 U/mL benzonase, 1 mM DTT, 10 mM imidazole, and Roche complete EDTA-free protease inhibitor) per liter cell pellet and sonication. Cell lysates are clarified by centrifugation in a Bechman JA-18 rotor for 45 min at 16,500 rpm. The supernatant is incubated with Ni-NTA agarose resin (Qiagen) for 3 hours, followed by an initial batch wash with 10 resin volume of buffer A (50 mM Tris-HCl, pH 7.5, 300 mM NaCl, 10% glycerol, 1 mM DTT, 10 mM imidazole) containing 0.1% Triton X-100. The resin is then packed onto a column and washed with buffer A. The HIS-tagged AICARFT protein is eluted with 10-500 mM imidazole gradient in buffer A. Pooled HIS-AICARFT containing fractions are concentrated, loaded onto a HiLoad 26/600 Superdex 200 column (GE Healthcare Biosciences), and eluted with storage buffer (50 mM Tris-HCl, pH7.5, 150 mM NaCl, 1 mM DTT, 10% Glycerol). Fractions containing HIS-AICARFT are pooled and protein concentration determined by the Bradford assay using BSA as standard. The protein is aliquoted and stored at −80° C.
One of the substrates of the enzyme reaction, 10-formyltetrahydrofolate (10-F-THFA), has limited chemical stability and is therefore synthesized on the same day that the ATIC enzyme assay is performed. The general synthetic route is described in P. Rowe, Methods Enzymol., 18, 733-735, (1971) and J. Rabinowitz, Methods Enzymol., 6, 814-815, (1963). The first step in this synthesis is the conversion of folinic acid (Sigma CAS 1492-18-8) to 5,10-methenyltetrahydrofolic acid (5,10-M-THFA). This conversion typically takes place the day before the enzyme assay is performed, but can be performed up to 1 week earlier and stored at room temperature. To folinic acid (81.6 mg) is added β-mercaptoethanol (2 mL), and 37% concentrated HCl (80 μL), is added. This reaction incubates a minimum of 3 hours at room temperature, with occasional mixing. The color changes from clear to yellow visually, and the complete conversion of folinic acid to 5,10-M-THFA is monitored by spectral analysis using a quartz cuvette. The UV absorption will change from 266 nm to 356 nm during this step. […] On the morning of the assay, the 80 mM 5,10-M-THFA is diluted to 1.6 mM in 40 μM ammonium bicarbonate (made fresh that day). This reaction incubates 3-5 hours at room temperature. The color changes from yellow to clear visually, and the conversion of 5,10-M-THFA to 10-F-THFA is monitored by spectral analysis using a quartz cuvette. The UV absorption will change from 356 nm to 258 nm during this step. […] Test compounds are prepared in DMSO to make a 10 mM stock solution. The stock solution is serially diluted 3-fold in DMSO to obtain a ten-point dilution curve with final compound concentrations ranging from 100 μM to 5 nM. The final DMSO concentration in the assay is 5%.
To each well of a 384-well polypropylene assay plate (NUNC 264573), […] of DMSO (control wells) or compound in DMSO and 9 μL of 55.56 μM ZMP (Sigma-Aldrich CAS 3031-94-5) in water are added. Then, 10 μL of 200 μM 10-F-THFA and 6 nM ATIC enzyme in 40 μM ammonium bicarbonate is added. […] The assay is incubated for 1 hour at room temperature, after which 40 μL of ACN is added to stop the reaction.

T1 sequence (P31939 whole entry): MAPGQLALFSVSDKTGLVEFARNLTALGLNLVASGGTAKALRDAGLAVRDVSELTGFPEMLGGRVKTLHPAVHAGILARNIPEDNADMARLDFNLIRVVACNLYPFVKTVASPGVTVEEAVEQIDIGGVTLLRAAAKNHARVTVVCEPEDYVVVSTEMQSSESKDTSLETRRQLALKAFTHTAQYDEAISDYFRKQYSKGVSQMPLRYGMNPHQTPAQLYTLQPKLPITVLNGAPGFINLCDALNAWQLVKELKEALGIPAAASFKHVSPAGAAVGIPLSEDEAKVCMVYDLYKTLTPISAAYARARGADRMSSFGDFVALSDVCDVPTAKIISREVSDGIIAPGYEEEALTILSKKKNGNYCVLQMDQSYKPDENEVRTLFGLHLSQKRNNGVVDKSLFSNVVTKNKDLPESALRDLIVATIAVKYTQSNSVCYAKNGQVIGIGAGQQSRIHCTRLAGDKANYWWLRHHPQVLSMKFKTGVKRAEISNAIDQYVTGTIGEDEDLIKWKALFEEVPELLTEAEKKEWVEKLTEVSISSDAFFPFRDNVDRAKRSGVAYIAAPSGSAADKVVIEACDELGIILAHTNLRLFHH

O=c1[nH]ccc2cc(F)c(NS(=O)(=O)c3ccc(N4CC[C@H](O)C4)s3)cc12 [Example 8, N-(6-Fluoro-1-oxo-1,2-dihydroisoquinolin-7-yl)-5-[(3S)-3-hydroxypyrrolidin-1-yl]thiophene-2-sulfonamide]
AICARFT inhibition in low folate media assay (in words) (AICARFT [1]): still inhibit AICARFT
AICARFT inhibition in enzyme assay (in words) (AICARFT [2]): inhibit AICARFT
